These results are taken from patent US11618746B2, “Inhibitors of APOL1 and methods of using same” (Vertex Pharmaceuticals Incorporated, priority 2018, dated 2023).

One may read the IC50 as the concentration at which inhibition is half-maximal.

This assay concerns the target T1, G1 APOL1 (Homo sapiens, UniProt O14791, I384M/S342G).
T1 construct: expressed in transfected cells
T1 sequence (O14791 28-398 S342G/I384M): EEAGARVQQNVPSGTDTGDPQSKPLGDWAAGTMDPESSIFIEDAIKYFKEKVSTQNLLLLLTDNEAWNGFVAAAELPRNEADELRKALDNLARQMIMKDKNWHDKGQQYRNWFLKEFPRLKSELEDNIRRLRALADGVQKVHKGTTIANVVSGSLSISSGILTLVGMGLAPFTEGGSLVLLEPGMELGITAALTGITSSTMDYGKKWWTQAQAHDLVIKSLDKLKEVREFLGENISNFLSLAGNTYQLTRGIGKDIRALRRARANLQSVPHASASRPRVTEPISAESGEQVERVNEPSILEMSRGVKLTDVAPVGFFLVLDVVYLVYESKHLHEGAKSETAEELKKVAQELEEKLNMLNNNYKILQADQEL
The experiment in a line: Acute APOL1 Thallium Assay with inducible stable clones of HEK 293 cells. The class given is cell-based. To be noted: HEK T-Rex tetracycline-inducible cells expressing G1 APOL1 (clone G1 DC3.25); inhibition of thallium flux rate. An excerpt: Acute APOL1 Thallium Assay with Inducible Stable Clones of HEK 293 Cells
Apolipoprotein L1 (APOL1) proteins form potassium-permeable cation pores in the plasma membrane. APOL1 risk variants (G1 and G2) induce greater potassium flux than G0 in HEK293 cells. This assay exploits the permeability of thallium (T1+) through ligand-gated potassium channels. The dye produces a bright fluorescent signal upon binding to T1+ conducted through potassium channels. The intensity of the T1+ signal is proportional to the number of potassium channels in the open state. Therefore, it provides a functional indication of the potassium channel activities. During the initial dye-loading step, the T1+ indicator dye as an acetoxymethyl (AM) ester enters the cells through passive diffusion. Cytoplasm esterases cleave the AM ester and relieve its active thallium-sensitive form. The cells are then stimulated with T1+. The increase of fluorescence in the assay represents the influx of T1+ into the cell specifically through the potassium channel (i.e. through APOL1 pores), providing a functional measurement of potassium channel/pore activity. The Thallium assay is conducted with cells expressing G1 APOL1.
APOL1 Cell Line (HEK T-Rex Stable Inducible Cell Line) • HEK T-Rex System • Tetracycline (Tet) inducible mammalian expression system. • Stably express the Tet repressor to regulate transcription. • Expression under the full-length CMV promoter. • APOL1 stable inducible cell line Clone used: G1 DC3.25
Tissue Culture Media • Cell Culture Medium • DMEM +10% FBS +P/S +5 μg/mL blasticidin+1 μg/mL puromycin. • 500 mL DMEM +55 mL FBS +5 mL P/S +280 μL blasticidin S HCl (10 mg/mL)+56 μL puromycin (10 mg/mL). • Cell Assay Medium • DMEM with 2% FBS+pen strep.
Instruments and Equipment • Nuaire cell culture hood, Cat. No. 540-600 • 37° C./5% CO2 incubator link to robotic arm, Liconic: STX110 • Molecular Devices FLIPR^Tetra High throughput cellular screening system, Cat. No. FT0324, Molecular Devices • ThermoFisher MultiDrop 384, Cat. No. 5840300 • Biotek Microfill, Cat. No. ASF1000A-4145 • BioRad TC10 cell counter, Cat. No. 145-0010 Assay Procedures
Cells Scaled Up from Frozen Vials • APOL1 G1 3.25 (HEK293 T-Rex) frozen vials: 5 million cells per vial • Step 1, Day 1: Defrost frozen vial into T-225. • Step 2, Day 5: (when 85% confluent): Split one T-225 at 3×10^6 cells per flask. • Step 3, Day 8: Splits cells to set up for the assay plates as described below.
T-Rex APOL1 HEK cells are split twice per week to keep the confluence state below 85% of the culture flask surface area. Cells can be kept until passage 25. • Cell Culture Medium • DMEM high glucose +10% FBS, +P/S, +5 μg/mL blasticidin, +1 μg/mL puromycin. • 500 mL DMEM, +55 mL FBS, +5 mL P/S, +280 μL blasicidin 10 mg/mL, +56 μL Puromycin 10 mg/mL. • Assay Media • Opti-MEM reduced serum medium from Invitrogen.
Preparation of Cell Assay Plates • Culture medium is removed from the x cm^2 T-flask by aspiration. • The cell monolayer is rinsed with PBS 1× at room temperature. PBS is removed by aspiration. • Cells are trypsinized using Trypsin. • The flasks are incubated at room temperature for 2-3 minutes. • Complete DMEM medium is then added. Cell suspension is then transferred to a 50 mL Falcon polypropylene tube. • Cells are then counted using a Biorad TC10 cell counter and the required amount of cells are centrifuged at 1200 RPM for 5 minutes. Required amount is 1.3×10^6 cells/mL APOL1 T-Rex HEK cells. • The pellet is suspended in the assay medium. • Using the MultiDrop, add 20 μL to each well (corresponds to 26000 cells total per well) of a 384-well black, transparent, flat bottom Poly-D coated plate. • Tetracycline as prepared in the following section is added to the cells before plating to induce APOL1 expression. • Plates are left at room temperature for 20 to 30 minutes before incubation at 37° C. and 5% CO2. […]
`CC(CC(=O)N[C@H]1CCNC1=O)c1c(-c2ccc(F)cc2)[nH]c2c(F)cc(F)cc12` (mixture of isomers) [Compound 96, 3-[5,7-difluoro-2-(4-fluorophenyl)-1H-indol-3-yl]-N-[(3S)-2-oxopyrrolidin-3-yl]butanamide] showed an IC50 greater than 1000 nM.

As to `CC(CC(=O)N[C@@H]1C(=O)NC[C@H]1O)c1c(-c2ccc(F)cc2)[nH]c2c(F)cc(F)cc12` (mixture of isomers) [Compound 97, 3-[5,7-difluoro-2-(4-fluorophenyl)-1H-indol-3-yl]-N-[(3S,4R)-4-hydroxy-2-oxo-pyrrolidin-3-yl]butanamide], the IC50 is greater than 1000 nM.

On to `O=C(CCc1c(-c2ccc(F)cc2)[nH]c2cc(O)ccc12)N[C@@H]1C(=O)NC[C@H]1O` (stereo in doubt) [Compound 110, 3-[2-(4-fluorophenyl)-6-hydroxy-1H-indol-3-yl]-N-[(3S,4R)-4-hydroxy-2-oxo-pyrrolidin-3-yl]propanamide], for which the IC50 was greater than 1000 nM.

Turning to `CC(=O)O[C@@H]1CNC(=O)[C@H]1NC(=O)CCc1c(-c2ccc(F)cc2)[nH]c2c(F)cc(F)cc12` [Compound 4, [(3R,4S)-4-[3-[5,7-difluoro-2-(4-fluorophenyl)-1H-indol-3-yl]propanoylamino]-5-oxo-pyrrolidin-3-yl]acetate], the IC50 was greater than 1000 nM.

Turning to `O=C(CCc1c(-c2ccc(F)cc2)[nH]c2c(F)cc(F)cc12)N[C@H]1C[C@@H](CF)NC1=O` [Compound 9], the IC50 is greater than 1000 nM.

Regarding `O=C(CCc1c(-c2ccc(F)cc2)[nH]c2c(F)cc(F)cc12)N[C@H]1C[C@H](CF)NC1=O` [Compound 10], the IC50 was greater than 1000 nM.

In the case of `C[C@H]1CNC(=O)[C@H]1NC(=O)CCc1c(-c2ccc(F)cc2)[nH]c2c(F)cc(F)cc12` [Compound 11], the IC50 is greater than 1000 nM.

Consider `O=C(CCc1c(-c2ccc(F)cc2)[nH]c2c(F)cc(F)cc12)N[C@H]1C(=O)NC[C@@H]1O` [Compound 12], for which the IC50 lay in the range of 250 to 1000 nM.

`O=C(CCc1c(-c2ccc(F)cc2)[nH]c2c(F)cc(F)cc12)N[C@H]1C(=O)NC[C@H]1O` [Compound 15] yielded an IC50 of 250 to 1000 nM.

Turning to `O=C(CCc1c(-c2ccc(F)cc2)[nH]c2c(F)cc(F)cc12)NC1CC2(CC2)NC1=O` (stereo not shown) [Compound 17], the IC50 is greater than 1000 nM.

The compound `Cc1ccc(-c2[nH]c3c(F)cc(F)cc3c2CCC(=O)N[C@@H]2C(=O)NC[C@H]2O)cc1` [Compound 22] had an IC50 of less than 250 nM.

Take `Cc1ccc(-c2[nH]c3c(F)cc(F)cc3c2CCC(=O)N[C@H]2CCNC2=O)cc1` [Compound 23]: the IC50 is less than 250 nM.

The compound `Cc1ccc(-c2[nH]c3c(F)cc(F)cc3c2CCC(=O)N[C@@H]2CCNC2=O)cc1` [Compound 24] registered an IC50 of less than 250 nM.

In the case of `O=C(CCc1c(-c2ccccc2)[nH]c2c(F)cc(F)cc12)N[C@H]1CCNC1=O` [Compound 25], the IC50 is less than 250 nM.

With `Cc1cc(F)c2[nH]c(-c3ccc(F)cc3)c(CCC(=O)N[C@H]3CCNC3=O)c2c1` [Compound 31], the IC50 was 250 to 1000 nM.

For the compound `O=C(CCc1c(-c2ccc(F)cc2)[nH]c2c(F)cc(Cl)cc12)N[C@H]1CCNC1=O` [Compound 32], the concentration for half-maximal inhibition (IC50) is less than 250 nM.

Take `O=C(CCc1c(-c2ccc(F)cc2)[nH]c2c(F)cc(Cl)cc12)N[C@@H]1CCNC1=O` [Compound 33]: the half-inhibitory concentration (IC50) lay in the range of 250 to 1000 nM.

As for `O=C(CCc1c(-c2ccc(F)cc2)[nH]c2c(Cl)cc(F)cc12)N[C@H]1CCNC1=O` [Compound 34], the IC50 was less than 250 nM.

In turn, `O=C(CCc1c(-c2ccccc2)[nH]c2c(Cl)cc(F)cc12)N[C@@H]1C(=O)NC[C@H]1O` [Compound 35] yielded an IC50 of less than 250 nM.

`Cc1cc(F)cc2c(CCC(=O)N[C@H]3CCNC3=O)c(-c3ccc(F)cc3)[nH]c12` [Compound 38] returned an IC50 of less than 250 nM.

For the compound `Cc1cc(F)cc2c(CCC(=O)N[C@H]3CCNC3=O)c(-c3ccc(F)cc3)[nH]c12` [Compound 39], the IC50 is 250 to 1000 nM.

Turning to `COc1cc(F)cc2c(CCC(=O)N[C@H]3CCNC3=O)c(-c3ccc(F)cc3)[nH]c12` [Compound 41], the IC50 was 250 to 1000 nM.

As to `O=C(CCc1c(-c2ccc(F)cc2)[nH]c2ccc(Cl)cc12)N[C@@H]1C(=O)NC[C@H]1O` [Compound 45, 3-[5-chloro-2-(4-fluorophenyl)-1H-indol-3-yl]-N-[(3S,4R)-4-hydroxy-2-oxo-pyrrolidin-3-yl]propanamide], the IC50 was less than 250 nM.

`N#Cc1cccc(-c2[nH]c3ccc(F)cc3c2CCC(=O)N[C@H]2CCNC2=O)c1` [Compound 53]: the IC50 is greater than 1000 nM.

On to `COc1ccc2[nH]c(-c3ccc(F)cc3)c(CCC(=O)N[C@H]3CCNC3=O)c2c1` [Compound 56, 3-[2-(4-fluorophenyl)-5-methoxy-1H-indol-3-yl]-N-[(3S)-2-oxopyrrolidin-3-yl]propanamide], for which the IC50 is greater than 1000 nM.

In turn, `O=C(CCc1c(-c2ccc(F)cc2)[nH]c2c(F)c(F)ccc12)N[C@H]1CCNC1=O` [Compound 57] returned an IC50 of 250 to 1000 nM.

As to `O=C(CCc1c(-c2ccccc2)[nH]c2c(F)cccc12)N[C@H]1CCNC1=O` [Compound 60], the IC50 fell in the range of 250 to 1000 nM.

With `C=Cc1cccc2c(CCC(=O)N[C@@H]3C(=O)NC[C@H]3O)c(-c3ccccc3)[nH]c12` [Compound 62, N-[(3S,4R)-4-hydroxy-2-oxo-pyrrolidin-3-yl]-3-(2-phenyl-7-vinyl-1H-indol-3-yl)propanamide], the IC50 is less than 250 nM.

In turn, `O=C(CCc1c(-c2ccccc2)[nH]c2c(C3CC3)cccc12)N[C@@H]1C(=O)NC[C@H]1O` [Compound 63] registered an IC50 of less than 250 nM.

For the compound `O=C(CCc1c(-c2ccccc2)[nH]c2c(C3=CCOC3)cccc12)N[C@@H]1C(=O)NC[C@H]1O` [Compound 64], the IC50 was greater than 1000 nM.

As for `O=C(CCc1c(-c2ccccc2)[nH]c2c(C3CCOC3)cccc12)N[C@@H]1C(=O)NC[C@H]1O` (stereo partly shown) [Compound 65], the IC50 is 250 to 1000 nM.

The compound `CC(C)(O)c1cccc2c(CCC(=O)N[C@@H]3C(=O)NC[C@H]3O)c(-c3ccccc3)[nH]c12` [Compound 66] showed an IC50 of 250 to 1000 nM.

Compound `C=C(C)c1cccc2c(CCC(=O)N[C@@H]3C(=O)NC[C@H]3O)c(-c3ccccc3)[nH]c12` [Compound 67] returned an IC50 of 250 to 1000 nM.

Take `CC(C)c1cccc2c(CCC(=O)N[C@@H]3C(=O)NC[C@H]3O)c(-c3ccccc3)[nH]c12` [Compound 68]: the IC50 was in the range of 250 to 1000 nM.

The compound `Cc1cccc2c(CCC(=O)N[C@@H]3C(=O)NC[C@H]3O)c(-c3ccccc3)[nH]c12` [Compound 69] gave an IC50 of less than 250 nM.

For `Cc1cccc2c(CCC(=O)N[C@@H]3C(=O)NC[C@H]3O)c(-c3ccc(F)cc3)[nH]c12` [Compound 71], the IC50 was less than 250 nM.

Compound `O=C(CCc1c(-c2ccccc2)[nH]c2c(Cl)cccc12)N[C@@H]1C(=O)NC[C@H]1O` [Compound 74] returned an IC50 of less than 250 nM.
